One series deals with HM cells. Put plainly: Cell viability of HM malignant mesothelioma cells, 48 h, crystal violet staining. The series is classed as cell-based. On the procedure:
(§1) Studies were performed to test the effects on cell viability of mesothelial (LP9) and malignant mesothelioma (HM) cells in culture when contacted with thiostrepton (TS) or TS diluted in Vitamin E-TPGS (VitE-TPGS, D-alpha-tocopherol polyethylene glycol 1000 succinate).
(§2) Indicated cell lines were plated into 96 well plates and allowed to adhere overnight. The following day test compounds were serially diluted in duplicate wells onto cells in complete tissue culture media. VitE-TPGS was serially diluted from a starting concentration of 0.025% (w/v) in 0.9% NaCl and added to LP9 or HM cells (FIG. 1). TS, dissolved in DMSO, was diluted to a starting concentration of 20 μM into cell culture media and serially diluted or diluted from a 1.5 mM TS/DMSO/5% VitE-TPGS (33 mM)/0.9% NaCl solution to a starting concentration of 20 μM TS/0.06% VitE-TPGS and serially diluted onto LP9 or HM cells (FIG. 2). Cells were incubated with test compounds for 48 hours before determining cell number using an indirect readout of cell viability by staining residual cells with crystal violet. The inhibitory concentration (IC50) in which 50% of the cells are not viable, was determined for tested compounds.

In a further series the test system is LP9 cells. The series can be described thus: Cell viability of LP9 mesothelial cells, 48 h, crystal violet staining. The series is classed as cell-based. The following applies: VitE-TPGS (w/v) in 0.9% NaCl. Here is the method: as §1, §2
Series [1] is described as follows: Equilibrium (intrinsic) solubility of the test article in formulation mixtures, 24h, LC/MS. The following applies: for solubility at 24 h: aqueous with cosolvent or surfactant or cyclodextrin, thermodynamic from solid.
Description: (§3) This study was performed to determine the intrinsic solubility of the test article in a variety of formulation systems as detailed below.
(§4) This method measured equilibrium solubility after 24h incubation with the desired formulation mixture. The solubility of the test article in each formulation mixture was measured by comparison of the AUC of the LC/MS spectrum obtained by injection of the solution of the test article in the desired solvent to the AUC of a reference standard solution. […] The reference solution was made fresh for every time point. Data was then calculated to give % test article remaining as function of time.
(§5) 1) A stock solution of the active pharmaceutical ingredient (API) was prepared in a 1,4-dioxane at 10 mM. 2) Nineteen 200 μl portions of stock were dispensed into 19 clean 500 μl micro-centrifuge tubes and the solvent removed by a stream of nitrogen. The 19 tubes were marked with numbers 1-19. 3) Five 200 μl portions of stock were dispensed into 5 clean 200 μl micro-centrifuge tubes and the solvent removed by a stream of nitrogen; these tubes were marked: S1, S2, S3, S4 and S5 and were to be saved for quantization by LC/MS. 4) The vehicles were prepared on a w/w basis for co-solvents, and on a molar basis for salts. 5) 200 μL of each vehicle was introduced into the appropriate micro centrifuge tube 1-19, corresponding to that vehicle. The final concentration of API was 10 mM. These were the test samples. 6) The sample tubes 1-19 were sonicated for 30 min and then agitated for 24h. 7) The vessel was centrifuged and 50 μl of the supernatant was removed and diluted with 350 μl of acetonitrile for LC/MS analysis. These were the test samples. 8) Micro-centrifuge tubes S1-S5 were reconstituted immediately before analysis by adding 200 μl of acetonitrile and 200 μl od 1,4-dioxane to the tubes and sonicating for 30 min. These were the standards. 9) Before analysis all 24 tubes were centrifuged. 10) 50 μl of the clear supernatant from Sample tubes 1-19 was removed and diluted into 350 μl of acetonitrile for LC/MS analysis. 11) 100 μl of the clear supernatant from Standard tubes S1-S5 was removed and diluted into 300 μl of acetonitrile for LC/MS analysis.
(§6) 13) Quantization was based on comparison to the AUC from the stock solution and was relative.
(§7) A freshly prepared standard was used for each time point.
The next series in a line: physchem. As to conditions: 5% VitE-TPGS in normal saline, aqueous with cosolvent or surfactant or cyclodextrin, thermodynamic from solid.

In brackets after ≈: the same amount, converted by molar mass.

Description for physchem: as §3, §4, §5, §6, §7

“D-a-tocopheryl polyethylene glycol 1000 succinate [VitE-TPGS]”: the IC50 in the series on HM cells (HM cells, VitE-TPGS (w/v) in 0.9% NaCl) was determined as 0.0006%; in the series on LP9 cells, 0.0014%.

As for `C=C(NC(=O)C(=C)NC(=O)c1csc(C2=N[C@@H]3c4csc(n4)[C@H]4NC(=O)c5csc(n5)[C@H]([C@](C)(O)[C@@H](C)O)NC(=O)[C@H]5CSC(=N5)/C(=C/C)NC(=O)[C@H]([C@@H](C)O)NC(=O)c5csc(n5)[C@]3(CC2)NC(=O)[C@H](C)NC(=O)C(=C)NC(=O)[C@H](C)NC(=O)[C@H]([C@@H](C)CC)N[C@@H]2C=Cc3c([C@H](C)O)cc(nc3[C@H]2O)C(=O)O[C@@H]4C)n1)C(N)=O` [TS, Thiostrepton], the “Sensitivity of HM cells compared to LP9 cells” value in the series with HM cells (HM vs LP9 cells) is reported as “more sensitive”. The solubility at 24 h worked out at 130 µM (≈ 216 µg/mL) in series [1] (1% polyacrylic acid (450,000 amw) in normal saline); 200 µM (≈ 333 µg/mL) in series [1] (1% polyvinylalcohol (61,000 amw) in normal saline); 220 µM (≈ 366 µg/mL) in series [1] (2% Tween 80 in normal saline); 1140 µM (≈ 1900 µg/mL) in series [1] (10% Cremophore in normal saline); 520 µM (≈ 866 µg/mL) in series [1] (10% Solutol HS 15 in normal saline); 50 µM (≈ 83.2 µg/mL) in series [1] (10% capmul in normal saline). In addition, the solubility at 24 h in series [1] (10% meglumine in normal saline) is 200 µM (≈ 333 µg/mL); in series [1] (20% Captisol in normal saline), 380 µM (≈ 633 µg/mL); in series [1] (20% Gelucire 44/14 in normal saline), 1170 µM (≈ 1950 µg/mL); in series [1] (20% Labrafil 1944CS in normal saline), 490 µM (≈ 816 µg/mL); in series [1] (20% Peceol in normal saline), 300 µM (≈ 499 µg/mL); in series [1] (20% hydroxypropyl-beta-cyclodextrin in normal saline), 440 µM (≈ 733 µg/mL). Besides, the solubility at 24 h stood at 210 µM (≈ 350 µg/mL) in series [1] (20% poloxamer 188 in normal saline); 660 µM (≈ 1100 µg/mL) in series [1] (20% transcutol in normal saline); 1470 µM (≈ 2450 µg/mL) in series [1] (30% Capryol 90 in normal saline); 380 µM (≈ 633 µg/mL) in series [1] (30% Labrafac PG in normal saline); 150 µM (≈ 250 µg/mL) in series [1] (30% Labrasol in normal saline); 320 µM (≈ 533 µg/mL) in series [1] (30% polyethylene glycol 300 in normal saline). In the series “physchem”, this compound yielded a solubility at 24 h of 1740 µM (≈ 2900 µg/mL). The “Solubility (in words)” value was “freely soluble” in series [1] (1,4-dioxane and chloroform); “fairly low solubility” in series [1] (aqueous solutions and a variety of organic solvents).

What is called solubility is how much of the substance goes into solution per volume.

The record behind these values is US20220080025A1, “VITAMIN E AND CANCER THERAPEUTIC COMPOSITIONS AND METHODS” (University of Vermont and State Agricultural College, priority 2019, published 2022).
